Measurements as given in PubChem BioAssay AID248 (DTP/NCI, 2004).
Several values for one entry are separate records, joined by “and”; a condition that tells them apart may be missing. Equal entries are not always repeated. Inconclusive results and toxic doses are left out. No stated cut-off is given here; in the data, active means T/C of 150% or more; inactive means T/C below 125%.

Test system: L1210 leukemia ip in BDF1 mice, survival T/C
Assay: NCI In Vivo Anticancer Drug Screen. Data for tumor model L1210 Leukemia (intraperitoneal) in B6D2F1 (BDF1) mice
Details: endpoint: mean survival time, higher = longer survival
Method in brief: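 Transplantable tumor model; survival measured in treated vs vehicle control mice. Value = treated/control.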

[1] = dose: 100.0 mg/kg/injection, schedule: Q01DX009 (ip), vehicle: Klucel (hydroxypropylcellulose) (HPC)
[2] = dose: 100.0 mg/kg/injection, schedule: Q04DX002 (ip), vehicle: Klucel (hydroxypropylcellulose) (HPC)
[3] = dose: 100.0 mg/kg/injection, schedule: Q04DX003 (ip), vehicle: Klucel (hydroxypropylcellulose) (HPC)
[4] = dose: 200.0 mg/kg/injection, schedule: Q01DX001 (ip), vehicle: Klucel (hydroxypropylcellulose) (HPC)
[5] = dose: 200.0 mg/kg/injection, schedule: Q01DX009 (ip), vehicle: Klucel (hydroxypropylcellulose) (HPC)
[6] = dose: 200.0 mg/kg/injection, schedule: Q04DX002 (ip), vehicle: Klucel (hydroxypropylcellulose) (HPC)
[7] = dose: 200.0 mg/kg/injection, schedule: Q04DX003 (ip), vehicle: Klucel (hydroxypropylcellulose) (HPC)
[8] = dose: 400.0 mg/kg/injection, schedule: Q01DX009 (ip), vehicle: Klucel (hydroxypropylcellulose) (HPC)
[9] = dose: 400.0 mg/kg/injection, schedule: Q04DX002 (ip), vehicle: Klucel (hydroxypropylcellulose) (HPC)
[10] = dose: 400.0 mg/kg/injection, schedule: Q04DX003 (ip), vehicle: Klucel (hydroxypropylcellulose) (HPC)
[11] = dose: 100.0 mg/kg/injection, schedule: Q01DX001 (ip), vehicle: other
[12] = dose: 200.0 mg/kg/injection, schedule: Q01DX001 (ip), vehicle: other
[13] = dose: 400.0 mg/kg/injection, schedule: Q01DX001 (ip), vehicle: other
[14] = dose: 100.0 mg/kg/injection, schedule: Q01DX009 (ip), vehicle: saline with Tween-80
[15] = dose: 100.0 mg/kg/injection, schedule: Q04DX003 (ip), vehicle: saline with Tween-80
[16] = dose: 200.0 mg/kg/injection, schedule: Q01DX009 (ip), vehicle: saline with Tween-80
[17] = dose: 200.0 mg/kg/injection, schedule: Q04DX003 (ip), vehicle: saline with Tween-80
[18] = dose: 400.0 mg/kg/injection, schedule: Q01DX009 (ip), vehicle: saline with Tween-80
[19] = dose: 400.0 mg/kg/injection, schedule: Q04DX003 (ip), vehicle: saline with Tween-80
[20] = dose: 100.0 mg/kg/injection, schedule: Q01DX001 (ip), vehicle: carboxymethylcellulose (CMC)
[21] = dose: 200.0 mg/kg/injection, schedule: Q01DX001 (ip), vehicle: carboxymethylcellulose (CMC)
[22] = dose: 400.0 mg/kg/injection, schedule: Q01DX001 (ip), vehicle: carboxymethylcellulose (CMC)
[23] = dose: 50.0 mg/kg/injection, schedule: Q01DX009 (ip), vehicle: Klucel (hydroxypropylcellulose) (HPC)

Measured: T/C

COc1ccccc1C(=O)NC(=S)Nc1ccc(Cl)c(Cl)c1
inactive: [1] 96 % of control and 87 % of control | [2] 95 % of control and 88 % of control | [3] 94 % of control | [4] 86 % of control | [5] 96 % of control and 106 % of control | [6] 98 % of control and 91 % of control | [7] 92 % of control | dose: 400.0 mg/kg/injection, schedule: Q01DX001 (ip), vehicle: Klucel (hydroxypropylcellulose) (HPC) 107 % of control | [8] 102 % of control | [9] 98 % of control and 91 % of control | [10] 102 % of control

O=C(OCCOC(=O)c1cccc([N+](=O)[O-])c1)c1cccc([N+](=O)[O-])c1
inactive: [11] 95 % of control | [12] 96 % of control | [13] 96 % of control

CC(=O)SCCC(=O)NCNC(=O)CCSC(C)=O
inactive: [14] 96 % of control | [15] 93 % of control | [16] 96 % of control | [17] 93 % of control | [18] 100 % of control | [19] 92 % of control

O=C(O)c1ccc2c(c1Cl)C(=O)c1ccccc1C2=O
inactive: [15] 98 % of control | [17] 93 % of control

C1=CC2OC3CCCCC3C2c2ccccc21 (stereo not given)
inactive: [20] 95 % of control | [21] 95 % of control | [22] 98 % of control

O=C(NCCc1ccccc1)C1CCN(CCc2ccccc2)CC1
inactive: [11] 107 % of control

Cc1ccc([N+](=O)[O-])cc1NC(=O)COc1ccc(Cl)cc1Cl
inactive: [1] 96 % of control | [3] 95 % of control | [5] 91 % of control | [7] 102 % of control | [8] 94 % of control | [10] 91 % of control

CC(C)=CCCC(C)CCOc1cccc(C)c1 (stereo not given)
inactive: dose: 100.0 mg/kg/injection, schedule: Q04DX002 (ip), vehicle: saline with Tween-80 105 % of control | dose: 200.0 mg/kg/injection, schedule: Q04DX002 (ip), vehicle: saline with Tween-80 99 % of control | dose: 400.0 mg/kg/injection, schedule: Q04DX002 (ip), vehicle: saline with Tween-80 89 % of control

Cc1c(NC(=O)Nc2cccc(F)c2)c(=O)n(-c2ccccc2)n1C
inactive: [14] 101 % of control | [15] 104 % of control | [16] 98 % of control | [17] 104 % of control | [18] 98 % of control | [19] 101 % of control

CC(CCCCCOC(=O)Nc1ccccc1)OC(=O)Nc1ccccc1 (stereo not given)
inactive: [11] 98 % of control | [12] 87 % of control | [13] 96 % of control

O=C(O)c1cccc(N=Cc2ccc3c(c2)CCC3)c1
inactive: [3] 94 % of control | [7] 94 % of control | [10] 95 % of control

CCNC(=O)OCc1cc(Cl)cc(Cl)c1OC(=O)NCC
inactive: [20] 103 % of control | [21] 97 % of control | [22] 106 % of control

CC(C)CCc1c(N)nc(NCCCc2ccccc2)nc1N
inactive: dose: 100.0 mg/kg/injection, schedule: Q01DX001 (ip), vehicle: Klucel (hydroxypropylcellulose) (HPC) 91 % of control | [4] 103 % of control

O=C(Nc1cnc2ccccc2c1)Nc1cnc2ccccc2c1
inactive: dose: 87.5 mg/kg/injection, schedule: Q01DX009 (ip), vehicle: Klucel (hydroxypropylcellulose) (HPC) 87 % of control | dose: 175.0 mg/kg/injection, schedule: Q01DX009 (ip), vehicle: Klucel (hydroxypropylcellulose) (HPC) 97 % of control | dose: 350.0 mg/kg/injection, schedule: Q01DX009 (ip), vehicle: Klucel (hydroxypropylcellulose) (HPC) 89 % of control

O=C(O)c1[nH]c(=O)[nH]c(=O)c1CN1CCCCC1
inactive: dose: 100.0 mg/kg/injection, schedule: Q01DX Z (ip), vehicle: methylcellulose (MC) 93 % of control | dose: 200.0 mg/kg/injection, schedule: Q01DX Z (ip), vehicle: methylcellulose (MC) 93 % of control

O=C(Nc1nccs1)Nc1cccc(Cl)c1Cl
inactive: dose: 25.0 mg/kg/injection, schedule: Q01DX009 (ip), vehicle: Klucel (hydroxypropylcellulose) (HPC) 106 % of control | [23] 101 % of control

Cc1nc(Br)c([N+](=O)[O-])[nH]1
inactive: dose: 100.0 mg/kg/injection, schedule: Q01DX001 (ip), vehicle: saline with Tween-80 95 % of control | dose: 200.0 mg/kg/injection, schedule: Q01DX001 (ip), vehicle: saline with Tween-80 114 % of control | dose: 400.0 mg/kg/injection, schedule: Q01DX001 (ip), vehicle: saline with Tween-80 97 % of control

C/C(=N/N(C)C)c1ccc(Br)cc1
inactive: dose: 6.25 mg/kg/injection, schedule: Q01DX009 (ip), vehicle: saline 100 % of control | dose: 12.5 mg/kg/injection, schedule: Q01DX009 (ip), vehicle: saline 94 % of control | dose: 25.0 mg/kg/injection, schedule: Q01DX009 (ip), vehicle: saline 92 % of control | [23] 108 % of control

COC(=O)c1ccccc1NC(=O)COc1cc(Cl)c(Cl)cc1Cl
inactive: [2] 96 % of control | [6] 89 % of control | [9] 86 % of control

COc1ccc(CN2CCCN(Cc3ccc(OC)cc3OC)C2c2cccc(OC)c2O)c(OC)c1
inactive: dose: 50.0 mg/kg/injection, schedule: Q01DX001 (ip), vehicle: saline 95 % of control | dose: 100.0 mg/kg/injection, schedule: Q01DX001 (ip), vehicle: saline 92 % of control | dose: 200.0 mg/kg/injection, schedule: Q01DX001 (ip), vehicle: saline 92 % of control | dose: 400.0 mg/kg/injection, schedule: Q01DX001 (ip), vehicle: saline 95 % of control

CCN(CC)CCN(C)c1ccc(CO)c2sc3cc(Cl)ccc3c(=O)c12
inactive: dose: 7.81 mg/kg/injection, schedule: Q01DX009 (ip), vehicle: saline 101 % of control | dose: 15.63 mg/kg/injection, schedule: Q01DX009 (ip), vehicle: saline 101 % of control | dose: 31.25 mg/kg/injection, schedule: Q01DX009 (ip), vehicle: saline 100 % of control | dose: 62.5 mg/kg/injection, schedule: Q01DX009 (ip), vehicle: saline 99 % of control

Cc1ccc([N+](=O)[O-])cc1/C=C/C(=O)O
inactive: dose: 100.0 mg/kg/injection, schedule: Q04DX003 (ip), vehicle: saline 106 % of control | dose: 200.0 mg/kg/injection, schedule: Q04DX003 (ip), vehicle: saline 93 % of control | dose: 400.0 mg/kg/injection, schedule: Q04DX003 (ip), vehicle: saline 104 % of control

CC[N+](CC)(CC)CCC[N+](CC)(CC)CC
inactive: dose: 30.0 mg/kg/injection, schedule: Q01DX009 (ip), vehicle: water 98 % of control | dose: 50.0 mg/kg/injection, schedule: Q01DX009 (ip), vehicle: water 95 % of control and 96 % of control | dose: 80.0 mg/kg/injection, schedule: Q01DX009 (ip), vehicle: water 98 % of control | dose: 100.0 mg/kg/injection, schedule: Q04DX003 (ip), vehicle: water 103 % of control | dose: 200.0 mg/kg/injection, schedule: Q04DX003 (ip), vehicle: water 99 % of control
